Data reported in patent US20260070945A1, “MACROCYCLIC IMMUNOMODULATORS” (Bristol-Myers Squibb Company, priority 2022, published 2026).
*1 amine or outer side, *2 acyl side, *3 side chain or, on linkers, in order; H or OH if unused. Where a SMILES comes first, the peptide text is derived from it. Bridges are numbered along the chain shown (N, C = ends). [ ]: non-standard residue; d: D form. The star is where a group is joined. ξ: configuration not given here. Phe(3-CF3) = N[C@@H](Cc1cccc(C(F)(F)F)c1)C(=O)O; Ala(morpholin-4-yl) = N[C@@H](CN1CCOCC1)C(=O)O; Phe(4-COOH) = N[C@@H](Cc1ccc(C(=O)O)cc1)C(=O)O; Bip = N[C@@H](Cc1ccc(-c2ccccc2)cc1)C(=O)O; γGlu = O=C(O)[C@H](CCC(=O)[*:2])N[*:1]; NH(CH2)12COOH = O=C(O)CCCCCCCCCCCCN*; ξγGlu = O=C(O)C(CCC(=O)[*:2])N[*:1]; Val(3-OH) = CC(C)(O)[C@H](N)C(=O)O; Cha = N[C@@H](CC1CCCCC1)C(=O)O; Cit = NC(=O)NCCC[C@H](N)C(=O)O; Carboxymethyl = O=C(O)C*; NMeA = CN[C@@H](C)C(=O)O; Dab = NCC[C@H](N)C(=O)O; AEEA = NCCOCCOCC(=O)O

molecular target: T1, PD-1/PD-L1 interaction (PE-labeled human PD-L1-Ig binding to Jurkat cell line over-expressing human PD-1) (Homo sapiens, UniProt Q15116); assay: Jurkat-PD-1 Cell Binding High-Content Screening Assay (CBA); conditions: Jurkat-hPD-1 cells, PE-labeled PD-L1-Ig 20 nM final; read-out: Jurkat HPD1 PDL1 IC50
T1 construct: expressed in transfected cells; host or cells: Jurkat
T1 sequence (Q15116 25-288): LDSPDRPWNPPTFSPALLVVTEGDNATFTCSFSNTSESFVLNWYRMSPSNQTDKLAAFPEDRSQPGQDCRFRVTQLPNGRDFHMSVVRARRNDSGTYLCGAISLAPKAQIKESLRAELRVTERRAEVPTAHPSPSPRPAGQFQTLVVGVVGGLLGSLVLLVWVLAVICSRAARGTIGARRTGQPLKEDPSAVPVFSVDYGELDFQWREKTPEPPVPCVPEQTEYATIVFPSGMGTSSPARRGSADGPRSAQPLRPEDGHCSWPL
Summary of the method: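 Jurkat cells overexpressing human PD-1 (8×10^3/well, DMEM + 10% FCS) preincubated with compound 2 h at 37 °C, then PE-labelled human PD-L1-Ig (20 nM final) for 1 h. Cells fixed in paraformaldehyde with Hoechst 33342; bound PD-L1 quantified by high-content imaging.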

IC50 | SMILES
15.1 nM | CC(C)C[C@H]1NC(=O)[C@H](C)N(C)C(=O)[C@H](CCCNC(N)=O)NC(=O)[C@H](Cc2ccc(-c3ccccc3)cc2)NC(=O)[C@H](Cc2ccc(C(=O)O)cc2)NC(=O)[C@H](Cc2cccc(C(F)(F)F)c2)NC(=O)[C@H](CC(=O)O)NC(=O)[C@H](Cc2ccc(OCC(=O)O)cc2)NC(=O)[C@H](CN2CCOCC2)NC(=O)CSC[C@@H](C(=O)N[C@@H](CCN)C(=O)NCCCCCCCCCCCCC(=O)O)NC(=O)[C@H](CO)NC(=O)[C@H](C(C)(C)O)NC(=O)[C@H](CC2CCCCC2)NC(=O)[C@H](CCN)NC1=O [Example 1156] ({CH2CO}-[Ala(morpholin-4-yl)]Y(Carboxymethyl)D[Phe(3-CF3)][Phe(4-COOH)][Bip][Cit][NMeA][dL][Dab][Cha][Val(3-OH)]SC[Dab]-{NH(CH2)12COOH}; thioether N-14)
4.6 nM | CC(=O)NCCCC[C@@H]1NC(=O)[C@H](C(C)(C)O)NC(=O)[C@H](CC2CCCCC2)NC(=O)[C@H](CCN)NC(=O)[C@@H](CC(C)C)NC(=O)[C@H](C)N(C)C(=O)[C@H](CCCNC(N)=O)NC(=O)[C@H](Cc2ccc(-c3ccccc3)cc2)NC(=O)[C@H](Cc2ccc(C(=O)O)cc2)NC(=O)[C@H](Cc2cccc(C(F)(F)F)c2)NC(=O)[C@H](CC(=O)O)NC(=O)[C@H](Cc2ccc(OCC(=O)O)cc2)NC(=O)[C@H](CN2CCOCC2)NC(=O)CSC[C@@H](C(=O)N[C@@H](CCN)C(=O)NCCCCCCCCCCCCC(=O)O)NC1=O [Example 1157] ({CH2CO}-[Ala(morpholin-4-yl)]Y(Carboxymethyl)D[Phe(3-CF3)][Phe(4-COOH)][Bip][Cit][NMeA][dL][Dab][Cha][Val(3-OH)]K(Ac)C[Dab]-{NH(CH2)12COOH}; thioether N-14)
50.3 nM | CC(C)C[C@H]1NC(=O)[C@H](C)N(C)C(=O)[C@H](CCCNC(N)=O)NC(=O)[C@H](Cc2ccc(-c3ccccc3)cc2)NC(=O)[C@H](Cc2ccc(C(=O)O)cc2)NC(=O)[C@H](Cc2cccc(C(F)(F)F)c2)NC(=O)[C@H](CC(=O)O)NC(=O)[C@H](Cc2ccc(OCC(=O)O)cc2)NC(=O)[C@H](Cc2ccc(C(=O)O)cc2)NC(=O)CSC[C@@H](C(=O)N[C@@H](CCN)C(=O)NCCOCCOCC(=O)N[C@@H](CCC(=O)NCCOCCOCC(=O)NCCCCCCCCCCCCC(=O)O)C(=O)O)NC(=O)[C@H](CCC(=O)O)NC(=O)[C@H](C(C)C)NC(=O)[C@H](CC2CCCCC2)NC(=O)[C@H](CCN)NC1=O [Example 1158] ({CH2CO}-[Phe(4-COOH)]Y(Carboxymethyl)D[Phe(3-CF3)][Phe(4-COOH)][Bip][Cit][NMeA][dL][Dab][Cha]VEC[Dab][AEEA][γGlu][AEEA]-{NH(CH2)12COOH}; thioether N-14)
46.4 nM | CC(=O)NCCCC[C@@H]1NC(=O)[C@H](C(C)(C)O)NC(=O)[C@H](CC2CCCCC2)NC(=O)[C@H](CCN)NC(=O)[C@@H](CC(C)C)NC(=O)[C@H](C)N(C)C(=O)[C@H](CCCNC(N)=O)NC(=O)[C@H](Cc2ccc(-c3ccccc3)cc2)NC(=O)[C@H](Cc2ccc(C(=O)O)cc2)NC(=O)[C@H](Cc2cccc(C(F)(F)F)c2)NC(=O)[C@H](CC(=O)O)NC(=O)[C@H](Cc2ccc(OCC(=O)O)cc2)NC(=O)[C@H](Cc2ccc(C(=O)O)cc2)NC(=O)CSC[C@@H](C(=O)N[C@@H](CCN)C(=O)NCCOCCOCC(=O)N[C@@H](CCC(=O)NCCOCCOCC(=O)NCCCCCCCCCCCCC(=O)O)C(=O)O)NC1=O [Example 1159] ({CH2CO}-[Phe(4-COOH)]Y(Carboxymethyl)D[Phe(3-CF3)][Phe(4-COOH)][Bip][Cit][NMeA][dL][Dab][Cha][Val(3-OH)]K(Ac)C[Dab][AEEA][γGlu][AEEA]-{NH(CH2)12COOH}; thioether N-14)
101 nM | CC(C)C[C@H]1NC(=O)[C@H](C)N(C)C(=O)[C@H](Cc2ccc(C(=O)O)cc2)NC(=O)[C@H](Cc2ccc(-c3ccccc3)cc2)NC(=O)[C@H](Cc2ccc(C(=O)O)cc2)NC(=O)[C@H](Cc2cccc(C(F)(F)F)c2)NC(=O)[C@H](CC(=O)O)NC(=O)[C@H](Cc2ccc(OCC(=O)O)cc2)NC(=O)[C@H](Cc2ccc(C(=O)O)cc2)NC(=O)CSC[C@@H](C(=O)N[C@@H](CCN)C(=O)NCCOCCOCC(=O)N[C@@H](CCC(=O)NCCOCCOCC(=O)NCCCCCCCCCCCCC(=O)O)C(=O)O)NC(=O)[C@H](CCC(=O)O)NC(=O)[C@H](C(C)C)NC(=O)[C@H](CC2CCCCC2)NC(=O)[C@H](CCN)NC1=O [Example 1160] ({CH2CO}-[Phe(4-COOH)]Y(Carboxymethyl)D[Phe(3-CF3)][Phe(4-COOH)][Bip][Phe(4-COOH)][NMeA][dL][Dab][Cha]VEC[Dab][AEEA][γGlu][AEEA]-{NH(CH2)12COOH}; thioether N-14)
81.4 nM | CC(C)C[C@H]1NC(=O)[C@H](C)N(C)C(=O)[C@H](Cc2ccc(C(=O)O)cc2)NC(=O)[C@H](Cc2ccc(-c3ccccc3)cc2)NC(=O)[C@H](Cc2ccc(C(=O)O)cc2)NC(=O)[C@H](Cc2cccc(C(F)(F)F)c2)NC(=O)[C@H](CC(=O)O)NC(=O)[C@H](Cc2ccc(OCC(=O)O)cc2)NC(=O)[C@H](Cc2ccc(C(=O)O)cc2)NC(=O)CSC[C@@H](C(=O)N[C@@H](CCN)C(=O)NCCOCCOCC(=O)N[C@@H](CCC(=O)NCCOCCOCC(=O)NCCCCCCCCCCCCC(=O)O)C(=O)O)NC(=O)[C@H](CO)NC(=O)[C@H](C(C)(C)O)NC(=O)[C@H](CC2CCCCC2)NC(=O)[C@H](CCN)NC1=O [Example 1161] ({CH2CO}-[Phe(4-COOH)]Y(Carboxymethyl)D[Phe(3-CF3)][Phe(4-COOH)][Bip][Phe(4-COOH)][NMeA][dL][Dab][Cha][Val(3-OH)]SC[Dab][AEEA][γGlu][AEEA]-{NH(CH2)12COOH}; thioether N-14)
15.2 nM | COC[C@@H]1NC(=O)CSC[C@@H](C(=O)N[C@@H](CCN)C(=O)NCCOCCOCC(=O)N[C@@H](CCC(=O)NCCOCCOCC(=O)NCCCCCCCCCCCCC(=O)O)C(=O)O)NC(=O)[C@H](CCC(=O)O)NC(=O)[C@H](C(C)C)NC(=O)[C@H](CC2CCCCC2)NC(=O)[C@H](CCN)NC(=O)[C@@H](CC(C)C)NC(=O)[C@H](C)N(C)C(=O)[C@H](CCC(N)=O)NC(=O)[C@H](Cc2ccc(-c3ccccc3)cc2)NC(=O)[C@H](Cc2ccc(C(=O)O)cc2)NC(=O)[C@H](Cc2cccc(C(F)(F)F)c2)NC(=O)[C@H](CC(=O)O)NC(=O)[C@H](Cc2ccc(OCC(=O)O)cc2)NC1=O [Example 1163] ({CH2CO}-S(Me)Y(Carboxymethyl)D[Phe(3-CF3)][Phe(4-COOH)][Bip]Q[NMeA][dL][Dab][Cha]VEC[Dab][AEEA][γGlu][AEEA]-{NH(CH2)12COOH}; thioether N-14)
8.9 nM | COC[C@@H]1NC(=O)CSC[C@@H](C(=O)N[C@@H](CCN)C(=O)NCCOCCOCC(=O)N[C@@H](CCC(=O)NCCOCCOCC(=O)NCCCCCCCCCCCCC(=O)O)C(=O)O)NC(=O)[C@H](CO)NC(=O)[C@H](C(C)(C)O)NC(=O)[C@H](CC2CCCCC2)NC(=O)[C@H](CCN)NC(=O)[C@@H](CC(C)C)NC(=O)[C@H](C)N(C)C(=O)[C@H](CCC(N)=O)NC(=O)[C@H](Cc2ccc(-c3ccccc3)cc2)NC(=O)[C@H](Cc2ccc(C(=O)O)cc2)NC(=O)[C@H](Cc2cccc(C(F)(F)F)c2)NC(=O)[C@H](CC(=O)O)NC(=O)[C@H](Cc2ccc(OCC(=O)O)cc2)NC1=O [Example 1164] ({CH2CO}-S(Me)Y(Carboxymethyl)D[Phe(3-CF3)][Phe(4-COOH)][Bip]Q[NMeA][dL][Dab][Cha][Val(3-OH)]SC[Dab][AEEA][γGlu][AEEA]-{NH(CH2)12COOH}; thioether N-14)
21.8 nM | COC[C@@H]1NC(=O)CSC[C@@H](C(=O)N[C@@H](CCN)C(=O)NCCOCCOCC(=O)N[C@@H](CCC(=O)NCCOCCOCC(=O)NCCCCCCCCCCCCC(=O)O)C(=O)O)NC(=O)[C@H](CCCCNC(C)=O)NC(=O)[C@H](C(C)(C)O)NC(=O)[C@H](CC2CCCCC2)NC(=O)[C@H](CCN)NC(=O)[C@@H](CC(C)C)NC(=O)[C@H](C)N(C)C(=O)[C@H](CCC(N)=O)NC(=O)[C@H](Cc2ccc(-c3ccccc3)cc2)NC(=O)[C@H](Cc2ccc(C(=O)O)cc2)NC(=O)[C@H](Cc2cccc(C(F)(F)F)c2)NC(=O)[C@H](CC(=O)O)NC(=O)[C@H](Cc2ccc(OCC(=O)O)cc2)NC1=O [Example 1165] ({CH2CO}-S(Me)Y(Carboxymethyl)D[Phe(3-CF3)][Phe(4-COOH)][Bip]Q[NMeA][dL][Dab][Cha][Val(3-OH)]K(Ac)C[Dab][AEEA][γGlu][AEEA]-{NH(CH2)12COOH}; thioether N-14)
14.8 nM | COC[C@@H]1NC(=O)CSC[C@@H](C(=O)N[C@@H](CCN)C(=O)NCCOCCOCC(=O)NC(CCC(=O)NCCOCCOCC(=O)NCCCCCCCCCCCCC(=O)O)C(=O)O)NC(=O)[C@H](CCCCNC(C)=O)NC(=O)[C@H](C(C)(C)O)NC(=O)[C@H](CC2CCCCC2)NC(=O)[C@H](CCN)NC(=O)[C@@H](CC(C)C)NC(=O)[C@H](C)N(C)C(=O)[C@H](CCCNC(N)=O)NC(=O)[C@H](Cc2ccc(-c3ccccc3)cc2)NC(=O)[C@H](Cc2ccc(C(=O)O)cc2)NC(=O)[C@H](Cc2cccc(C(F)(F)F)c2)NC(=O)[C@H](CC(=O)O)NC(=O)[C@H](Cc2ccc(OCC(=O)O)cc2)NC1=O (stereo partly drawn) [Example 1168] ({CH2CO}-S(Me)Y(Carboxymethyl)D[Phe(3-CF3)][Phe(4-COOH)][Bip][Cit][NMeA][dL][Dab][Cha][Val(3-OH)]K(Ac)C[Dab][AEEA][ξγGlu][AEEA]-{NH(CH2)12COOH}; thioether N-14)
60.6 nM | COC[C@@H]1NC(=O)CSC[C@@H](C(=O)N[C@@H](CCN)C(=O)NCCOCCOCC(=O)N[C@@H](CCC(=O)NCCOCCOCC(=O)NCCCCCCCCCCCCC(=O)O)C(=O)O)NC(=O)[C@H](CCC(=O)O)NC(=O)[C@H](C(C)C)NC(=O)[C@H](CC2CCCCC2)NC(=O)[C@H](CCN)NC(=O)[C@@H](CC(C)C)NC(=O)[C@H](C)N(C)C(=O)[C@H](Cc2ccc(C(=O)O)cc2)NC(=O)[C@H](Cc2ccc(-c3ccccc3)cc2)NC(=O)[C@H](Cc2ccc(C(=O)O)cc2)NC(=O)[C@H](Cc2cccc(C(F)(F)F)c2)NC(=O)[C@H](CC(=O)O)NC(=O)[C@H](Cc2ccc(OCC(=O)O)cc2)NC1=O [Example 1169] ({CH2CO}-S(Me)Y(Carboxymethyl)D[Phe(3-CF3)][Phe(4-COOH)][Bip][Phe(4-COOH)][NMeA][dL][Dab][Cha]VEC[Dab][AEEA][γGlu][AEEA]-{NH(CH2)12COOH}; thioether N-14)
